In assay [1] the target is T1, Cholinesterase (Homo sapiens, UniProt P06276).
Description: In vitro inhibitory activity against Butyrylcholinesterase (BChE) in human serum
For another assay, the target named is Acetylcholinesterase (Electrophorus electricus, UniProt O42275).
Assay [2] addresses T1, Cholinesterase. Nature of the assay: Ratio of inhibitory activity against butyrylcholinesterase (BChE) to that of acetylcholinesterase (AChE).

This note sets out measurements from ChEMBL document CHEMBL1146616, “Synthesis and structure-activity relationships of open D-Ring galanthamine analogues” (Bioorg Med Chem Lett, 2003).

As a reminder, the IC50 is the concentration that gives 50% inhibition.

Acetylcholinesterase, sequence (O42275 whole entry): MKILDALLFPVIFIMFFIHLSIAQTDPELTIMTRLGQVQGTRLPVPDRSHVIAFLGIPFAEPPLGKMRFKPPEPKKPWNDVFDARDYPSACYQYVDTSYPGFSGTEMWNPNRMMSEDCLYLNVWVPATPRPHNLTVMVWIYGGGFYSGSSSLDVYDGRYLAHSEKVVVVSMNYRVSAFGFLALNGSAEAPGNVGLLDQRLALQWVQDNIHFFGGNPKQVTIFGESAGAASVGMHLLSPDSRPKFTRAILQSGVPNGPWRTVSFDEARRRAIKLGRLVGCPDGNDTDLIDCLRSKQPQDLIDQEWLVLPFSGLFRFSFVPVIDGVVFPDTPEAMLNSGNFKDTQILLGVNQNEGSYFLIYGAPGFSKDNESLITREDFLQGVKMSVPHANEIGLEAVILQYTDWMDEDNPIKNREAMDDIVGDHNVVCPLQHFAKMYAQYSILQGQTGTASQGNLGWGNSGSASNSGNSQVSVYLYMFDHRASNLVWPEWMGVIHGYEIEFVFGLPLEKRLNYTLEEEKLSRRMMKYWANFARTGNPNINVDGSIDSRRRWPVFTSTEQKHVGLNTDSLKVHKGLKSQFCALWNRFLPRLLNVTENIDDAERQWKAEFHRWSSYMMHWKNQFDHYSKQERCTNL
T1 sequence (P06276 whole entry): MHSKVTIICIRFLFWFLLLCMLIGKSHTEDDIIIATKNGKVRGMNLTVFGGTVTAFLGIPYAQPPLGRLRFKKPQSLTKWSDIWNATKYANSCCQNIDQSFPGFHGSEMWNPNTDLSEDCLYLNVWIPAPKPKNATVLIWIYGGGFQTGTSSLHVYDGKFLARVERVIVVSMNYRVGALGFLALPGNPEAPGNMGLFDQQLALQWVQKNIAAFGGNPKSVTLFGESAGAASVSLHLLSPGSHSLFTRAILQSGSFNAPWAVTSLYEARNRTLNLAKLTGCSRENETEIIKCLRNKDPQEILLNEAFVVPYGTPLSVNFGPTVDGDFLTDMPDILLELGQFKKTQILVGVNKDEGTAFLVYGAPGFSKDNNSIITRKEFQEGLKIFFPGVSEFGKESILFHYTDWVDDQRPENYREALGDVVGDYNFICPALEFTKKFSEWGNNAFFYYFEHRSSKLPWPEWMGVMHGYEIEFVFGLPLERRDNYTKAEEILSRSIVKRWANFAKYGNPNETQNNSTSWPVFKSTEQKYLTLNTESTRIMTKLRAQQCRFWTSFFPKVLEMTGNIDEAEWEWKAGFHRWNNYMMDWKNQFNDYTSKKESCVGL
Description for Acetylcholinesterase: In vitro inhibitory activity against acetylcholinesterase (AChE) in Electrophorus electricus

As for `CCOC(=O)N(C)CC[C@@]12C=C[C@H](O)C[C@@H]1Oc1c(OC)ccc(C=O)c12`, the values for the IC50 at Cholinesterase [1] and at Acetylcholinesterase were 155 µM and 1000 µM, respectively.
On to `CCOC(=O)N1CC[C@@]23C=C[C@H](O)C[C@@H]2Oc2c(OC)ccc(c23)C1`, for which the Selectivity at Cholinesterase [2] is 4.5. Moreover, the figures for the 50% inhibitory concentration (IC50) at Cholinesterase [1] and against Acetylcholinesterase were 300 µM and 67 µM, respectively.
In the same order, the values of `CCOC(=O)O[C@H]1C=C[C@@]2(CCN(C)C(=O)OCC)c3c(CCl)ccc(OC)c3O[C@H]2C1` are 1.2, 790 µM and 650 µM.
Turning to `COc1ccc2c3c1O[C@H]1C[C@@H](O)C=C[C@@]31CCN(C)OC2`, the figures for the concentration for half-maximal inhibition (IC50) on Cholinesterase [1] and on Acetylcholinesterase were 960 µM and 9900 µM, respectively.
As to `CCOC(=O)N(C)CC[C@@]12C=C[C@H](O)C[C@@H]1Oc1c(OC)ccc(CO)c12`, the IC50 is 216 µM against Cholinesterase [1] and 580 µM against Acetylcholinesterase.
